Data set [1] concerns the target T1, ENL (Homo sapiens, UniProt Q03111).
T1 construct: against AF9(497-568) and ENL (489-559) proteins running different tested concentrations over CM5 chip; MBP (pMSCG9-LIC vector); made in house; host or cells: Escherichia coli BL21 (DE3)
T1 sequence (Q03111 489-559): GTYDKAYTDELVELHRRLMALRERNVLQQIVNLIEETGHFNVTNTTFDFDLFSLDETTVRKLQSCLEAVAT
Briefly: Solution competitive SPR assay of peptides, ENL-DOT1L interaction. In kind it is binding. On the procedure:
(§1) Solution competitive SPR based assay was performed to determine the IC50 values of DOT1L peptides. […] Response units (RU) were measured at 15 seconds in the dissociation phase and the specific binding was calculated by subtracting the control surface (Fcl) signal from the surfaces with immobilized Mocr-DOT1L. IC50 values were determined by non-linear least squares analysis using Graph Pad Prism 5.0 software.
On the technique in general: In SPR one partner is held on a chip, and binding of the other changes the refractive index at the surface.

Another data set deals with T2, GB1-AF9 (Homo sapiens, UniProt P42568).
T2 construct: the recombinant GB1-AF9 protein (residues 497-568); made in house; host or cells: Escherichia coli BL21 (DE3)
T2 sequence (P42568 497-568): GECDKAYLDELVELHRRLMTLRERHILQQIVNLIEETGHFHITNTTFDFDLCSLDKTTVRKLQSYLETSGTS
Briefly: FP competitive binding, displacement of Flu-DOT1L from GB1-AF9. As to conditions: read-out: IC50, competition with DOT1L 10-mer fluorescein-labeled peptide for AF9. On the procedure:
AF4 (749-775) protein and several peptides (AF4 14 mer, un-labeled and biotin-labeled DOT1L 10 mer peptide) were tested for their ability to displace the Flu-DOT1L from GB1-AF9 protein. The dose-dependent binding experiments were carried out in 96-well plates with serial dilutions of tested protein or peptides, GB1-AF9 protein (500 nM) and Flu-DOT1L (10 nM) in the same assay buffer and final volume of 125 μL. The polarization values were measured after 3 h incubation. Negative controls containing GB1-AF9 protein and probe (equivalent to 0% inhibition), and positive controls containing only free Flu-DOT1L probe (equivalent to 100% inhibition), were included on each assay plate. IC50 values were determined by nonlinear regression fitting of the competition curves (GraphPad Prism 5.0).

The target of data set [2] is T3, AF9 (Homo sapiens, UniProt P42568).
T3 sequence (P42568 497-568): T2 sequence (P42568 497-568)
Briefly: Solution competitive SPR assay of peptides, AF9-DOT1L interaction. In kind it is binding. Set-up: against AF9(497-568) and ENL (489-559) proteins running different tested concentrations over CM5 chip; GB1 (pGB1-LIC vector); made in house; host or cells: Escherichia coli BL21 (DE3). On the procedure: as §1

Data set [3] concerns the target T4, AF9 (Homo sapiens, UniProt P42568).
T4 sequence (P42568 1-568): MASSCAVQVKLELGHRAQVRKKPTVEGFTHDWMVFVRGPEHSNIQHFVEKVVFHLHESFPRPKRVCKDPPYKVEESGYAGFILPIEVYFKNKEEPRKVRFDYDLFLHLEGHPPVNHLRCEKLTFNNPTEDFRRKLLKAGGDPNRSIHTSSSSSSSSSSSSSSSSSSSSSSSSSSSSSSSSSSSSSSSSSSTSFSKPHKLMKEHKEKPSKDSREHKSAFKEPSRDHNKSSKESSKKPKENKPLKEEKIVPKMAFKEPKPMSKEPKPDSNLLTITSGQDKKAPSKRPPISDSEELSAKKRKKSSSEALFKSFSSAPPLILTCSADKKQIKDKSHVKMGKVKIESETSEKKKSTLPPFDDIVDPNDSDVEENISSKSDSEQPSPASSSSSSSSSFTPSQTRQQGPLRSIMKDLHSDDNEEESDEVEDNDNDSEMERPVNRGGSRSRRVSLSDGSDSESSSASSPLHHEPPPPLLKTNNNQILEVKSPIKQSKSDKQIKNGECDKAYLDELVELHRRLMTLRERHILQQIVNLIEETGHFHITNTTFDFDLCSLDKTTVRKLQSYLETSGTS
Briefly: Saturation Transfer Difference (STD) NMR. In kind it is binding. On the procedure: C) Globally fitted concentration series of 38 (100, 50, 25, 12.5 and 6.25 μM) binding to immobilized AF9 using OctetRed System (see Example 12).
To provide further validation of the hit selection in addition to the biochemical assays Saturation Transfer Difference (STD), NMR spectroscopy was used. NMR spectroscopy has been successfully utilized to detect and characterize the direct binding of small-molecule compounds to large biomolecules. This technique is also allowing characterization of the binding interactions and maps the ligand-protein contacts in the bound state, delineating which chemical moieties of the ligand molecule are key for molecular recognition by the protein (group epitope mapping, FIG. 20A). […] The direct binding of 38 was also confirmed with ThermoFluor biophysical binding assay. ThermoFluor exploits a well-known biophysical phenomenon where small changes in the intrinsic melting temperature of proteins in the presence of ligands are related to the equilibrium-binding constant. Compounds that interact with the native form of the protein will shift the equilibrium to the left, increasing the Tm, the temperature at which half the protein is unfolded. In the presence of compound 38, the Tm of MBP-AF9 protein increases in a dose-dependent manner, giving ΔTm of 1.2 degree in […] (FIG. 20B).

Data set [4] addresses T1, ENL. Briefly: SPR competitive binding assay of small molecules, ENL. To be noted: SPR competitive based assay; read-out: ENL IC50 ± SD. From the text:
(§2) To further validate the binding of the confirmed compounds and identify potential promiscuous inhibitors, several secondary assays have been developed to support hit confirmation and the hit-to-probe optimization process. In order to determine that the compounds bind effectively to the target and disrupt protein-protein interaction, a SPR competitive binding assay was used. This assay uses a platform that differs from the FP-based assay where DOT1L recombinant protein (residues […]) is immobilized on a CM5 chip, allowing for testing of the inhibitors for their ability to disrupt AF9-DOT1L protein-protein interactions.
This class of compounds was also tested for their binding against ENL protein, which is highly homologous with AF9.

Data set [5] can be described thus: Microsomal stability in mouse liver microsome. In kind it is in vitro ADME. As to conditions: with NADPH. On the procedure: For optimization of this class of inhibitors besides testing their binding affinity, the physico-chemical properties and microsomal stability will be tested in order to obtain improvement at multiple levels, as necessary for fully optimized compounds. To obtain initial information about the stability of this chemical class of compounds, compounds 42 and 48 have been tested in microsomal stability using mouse liver microsome. […] If their structure is analyzed, the major difference between these two compounds is the R2 substituent, furan vs. thiophen.

The target in data set [6] is T3, AF9. Briefly: SPR competitive binding assay of small molecules, AF9-DOT1L. To be noted: SPR competitive based assay; read-out: AF9 IC50 ± SD. Further details: against AF9(497-568) and ENL (489-559) proteins running different tested concentrations over CM5 chip; GB1 (pGB1-LIC vector); made in house; host or cells: Escherichia coli BL21 (DE3).
Source text: Several secondary assays have already been developed to support hit confirmation and the hit-to-probe optimization process. The established and optimized SPR-based competitive assay utilizing DOT1L protein (826-1095) immobilized on the CM5 sensor chip was used as a secondary counter screen assay to validate binding of compounds to AF9. […] Both assays gave similar IC50 values.
as §2

Data set [7] deals with T3, AF9. Briefly: Optimized competitive FP binding assay (N-Flu-DOT1L / AF9). Further details: the recombinant GB1-AF9 protein (residues 497-568); made in house; host or cells: Escherichia coli BL21 (DE3).
A further data set has as its target T5, MBP-ENL (489-559) (Homo sapiens, UniProt Q03111).
T5 construct: MBP-ENL (489-559) was dialysed extensively; made in house; host or cells: Escherichia coli BL21 (DE3)
T5 sequence (Q03111 489-559): T1 sequence (Q03111 489-559)
Briefly: Isothermal titration calorimetry with MBP-ENL. As to conditions: ITC, MBP-tagged ENL, 1:1 stoichiometry; read-out: KD to ENL protein. It counts as binding. On the procedure: Isothermal titration calorimetry—ITC was carried out using a Nano-ITC Micro Calorimeter (TA Instruments) at 20° C. MBP-ENL (489-559) was dialysed extensively against 50 mM Na2HPO4, (pH 7.5) and 100 mM NaCl, and 80 μM was used for titration studies of DOT1L 16-mer and 10-mer peptides, and 110 μM for DOT1L 7-mer titration. Tested peptides dissolved in the same buffer at 400 μM (DOT1L 16-mer and 10-mer) or 500 μM (DOT1L 7-mer) were tested by injecting 2 μl aliquots into the protein sample, at time intervals of […], to ensure that the titration peak returned to the baseline. The ITC data were analyzed by NanoAnalyze software package using a one site-binding model.

A further data set deals with T6, DOT1L (826-1095) (Homo sapiens, UniProt Q8TEK3).
T6 construct: made in house; host or cells: Escherichia coli BL21 (DE3)
T6 sequence (Q8TEK3 826-1095): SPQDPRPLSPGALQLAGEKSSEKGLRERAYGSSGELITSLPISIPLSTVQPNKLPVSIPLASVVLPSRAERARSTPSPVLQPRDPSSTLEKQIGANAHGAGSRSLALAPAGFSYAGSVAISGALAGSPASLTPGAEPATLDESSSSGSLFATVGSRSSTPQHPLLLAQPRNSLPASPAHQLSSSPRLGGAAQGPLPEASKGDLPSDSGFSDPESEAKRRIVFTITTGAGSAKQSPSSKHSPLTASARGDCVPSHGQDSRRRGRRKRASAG
Briefly: SPR binding of ENL fragments to immobilized Mocr-DOT1L (826-1095). On the procedure: FIG. 7 pertains to analyzing the C-terminal domain in ENL protein and its binding to DOT1L. A. Alignment of ENL and AF9 C-terminal domain. The predicted α-helices are marked with Helix 1 and Helix 2 and conserved residues are presented in grey. […] The kon, koff and Kd were calculated by simultaneous non-linear regression using 1:1 binding model and BIAevaluation 3.1 software. The experimental data are shown in black while the global fit analyses are shown in grey.
Surface Plasmon Resonance (SPR) binding studies—All SPR based experiments were performed on a BIAcore 2000 (BIAcore, GE Healthcare) instrument. Different tested DOT1L recombinant proteins were immobilized on a CM5 sensor chip by standard EDC/NHS coupling chemistry followed by ethanolamine deactivation of the surfaces. For immobilization of full length Flag-DOT1L protein, anti-Flag antibody (Sigma, Anti-FLAG M2) was immobilized on CM5 chip by the same amine coupling chemistry. HEK293 whole cells lysate with overexpressed Flag-DOT1L at 2.4 μg/l total protein concentration was injected over the Flag antibody surface, followed by injecting of AF9 and ENL in different concentrations. […] Binding parameters, kon, koff and Kd were calculated by simultaneous non-linear regression using BIAEvaluation software.

Experimental findings from patent publication US9862746B2, “Compositions and methods relating to hindering DOT1L recruitment by MLL-fusion proteins” (The Regents of the University of Michigan, priority 2013, dated 2018) are described below.

Where a SMILES comes first, the peptide text is derived from it.

In the case of `CC[C@H](C)[C@H](NC(=O)[C@H](CCCCN)NC(=O)[C@@H](NC(=O)[C@H](CCSC)NC(=O)[C@H](CC(C)C)NC(C)=O)C(C)C)C(=O)N[C@H](C(=O)N[C@@H](CC(C)C)C(=O)N[C@@H](CC(=O)O)C(=O)N[C@@H](CC(C)C)C(=O)N[C@@H](CC(C)C)C(=O)N[C@@H](CO)C(=O)N[C@@H](CCCNC(=N)N)C(=O)N[C@H](C(=O)N1CCC[C@H]1C(N)=O)[C@@H](C)CC)[C@@H](C)O` [AF4 14 mer, reference compound] (Ac-LMVKITLDLLSRIP-NH2), the IC50 was found to be 0.43 µM at ENL [1] (read-out: IC50 against ENL (block PPI DOT1L/ENL)), 0.28 µM at GB1-AF9 and 0.2 µM at AF9 [2] (read-out: IC50 against AF9 (block PPI DOT1L/AF9)). Take `COc1cccc(Nc2nc(N3CCOCC3)c3c(n2)N(C)NC3)c1` [Compound 36]: the “STD effects (direct binding to AF9)” value on AF9 [3] is on record as “strong STD effects”. `CCCc1ccc(S(=O)(=O)N2c3ccccc3NC3=C(C(=O)CCC3)C2c2ccco2)cc1` (centres unmarked) [Compound 42]: the IC50 is 58.1 ± 12 µM at ENL [4] and 47.1 ± 2.3 µM at AF9 [6]. In addition, in [5], the “half time in mouse liver microsome” value is 2 min. For `CCc1ccc(S(=O)(=O)N2c3ccccc3NC3=C(C(=O)CCC3)C2c2cccs2)cc1` (centres unmarked) [Compound 48] the same measures were 19.7 ± 4 µM, 24.8 ± 1.3 µM and more than 60 min. The term Ki denotes the equilibrium dissociation constant of an inhibitor or competing ligand from its target. `CC[C@H](C)[C@H](NC(=O)[C@@H]1CCCN1C(=O)[C@H](CC(C)C)NC(C)=O)C(=O)N[C@@H](CO)C(=O)N[C@@H](C)C(=O)N1CCC[C@H]1C(=O)N[C@@H](CC(C)C)C(=O)N[C@@H](CO)C(=O)N[C@H](C(=O)N[C@H](C(N)=O)C(C)C)[C@@H](C)O` [Compound I869A] (Ac-LPISAPLSTV-NH2): the IC50 is more than 200 µM on ENL [1] (CM5 chip with immobilized DOT1L protein, read-out: IC50 ± SD ENL) and more than 200 µM on AF9 [2] (CM5 chip with immobilized DOT1L protein, read-out: IC50 ± SD AF9). Also, the Ki at AF9 [7] was more than 100 µM. By Kd is commonly meant the free concentration of one partner at which half of the binding sites on the other are occupied at equilibrium, for simple one-to-one binding. Consider `CC[C@H](C)[C@H](NC(=O)[C@@H]1CCCN1C(=O)[C@H](CC(C)C)NC(C)=O)C(=O)N[C@@H](CO)C(=O)N[C@H](C(=O)N1CCC[C@H]1C(=O)N[C@@H](CC(C)C)C(N)=O)[C@@H](C)CC` [DOT1L 7 mer, Ac-LPISIPL-NH2] (Ac-LPISIPL-NH2), for which the Kd on MBP-ENL (489-559) was determined as 3.4 µM. With “ENL H1: recombinant fragment of ENL protein corresponding to predicted helix 1 (GTYDKAYTDELVELHRRLMALRERNVLQQIVNLIEETGHFNVTNTTFDFDLFSLDE)”, the affinity in the data set with DOT1L (826-1095), expressed as Kd, was 2.8 µM. “ENL H2: recombinant fragment of ENL protein corresponding to predicted helix 2 (EETGHFNVTNTTFDFDLFSLDETTVRKLQSCLEAVAT)” showed a Kd with DOT1L (826-1095) of 14.6 µM. As to “recombinant AF4 protein: AF4 recombinant protein (749-775 residues) (LSPLRDTPPPQSLMVKITLDLLSRIPQ)”, the IC50 with GB1-AF9 was found to be 0.56 µM.
